# Reference: publication PMC5404560, “Towards Selective Mycobacterial ClpP1P2 Inhibitors with Reduced Activity against the Human Proteasome” (Antimicrobial Agents and Chemotherapy, 2017)
# “And” between values parts separate entries of the source, which are not always exact repeats. Equal entries are not always repeated.
# How the values were obtained:
# Cathepsin G = target: T1, Cathepsin G (Homo sapiens, UniProt P08311); experiment: Protease panel: Cathepsin G; type: biochemical; conditions: supplement panel table, test and control compound
# T1 construct: Reaction Biology Corporation (contract testing)
# T1 sequence (P08311 21-255, species assumed): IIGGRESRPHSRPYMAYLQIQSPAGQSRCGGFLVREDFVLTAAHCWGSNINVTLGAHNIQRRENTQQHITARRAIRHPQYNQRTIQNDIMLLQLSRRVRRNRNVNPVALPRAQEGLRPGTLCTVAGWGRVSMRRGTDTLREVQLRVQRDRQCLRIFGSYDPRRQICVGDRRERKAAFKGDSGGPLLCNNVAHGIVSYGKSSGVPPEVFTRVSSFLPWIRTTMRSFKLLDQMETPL
# Experimental: (§1) Protease panel testing was carried out by Reaction Biology Corporation.
# Chymase = Chymase (Homo sapiens, UniProt P23946); experiment: Protease panel: Chymase; type: biochemical; conditions: supplement panel table, test and control compound
# Chymase, sequence (P23946 22-247, species assumed): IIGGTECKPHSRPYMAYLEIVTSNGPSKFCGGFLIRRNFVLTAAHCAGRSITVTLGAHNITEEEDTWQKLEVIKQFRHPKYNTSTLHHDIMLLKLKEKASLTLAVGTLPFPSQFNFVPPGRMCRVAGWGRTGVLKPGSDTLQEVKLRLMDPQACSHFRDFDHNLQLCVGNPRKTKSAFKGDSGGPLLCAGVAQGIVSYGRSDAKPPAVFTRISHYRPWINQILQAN
# Experimental: as §1
# M. smegmatis ΔprcAB = type: cell-based; conditions: 24 h exposure, OD600; concentration inhibiting 50% of growth
# M. tuberculosis H37Rv = experiment: microbe, parasite or virus in culture; type: cell-based; conditions: Mycobacterium tuberculosis, H37RV, 120 h, 5 days; for MIC50: read-out: MIC50 (μM) against M. tuberculosis H37Rv; for MIC90: read-out: MIC90 (μM) against M. tuberculosis H37Rv
# ClpP1P2 = ClpP1P2 (Mycolicibacterium smegmatis, UniProt A0R197+A0R198); experiment: ClpP1P2 inhibition whole-cell RFP-SsrA reporter assay; conditions: M. smegmatis ΔprcAB IC50 (μM) for ClpP1P2, whole-cell RFP-SsrA reporter, 3 h incubation
# ClpP1P2, sequence (A0R198 4-203): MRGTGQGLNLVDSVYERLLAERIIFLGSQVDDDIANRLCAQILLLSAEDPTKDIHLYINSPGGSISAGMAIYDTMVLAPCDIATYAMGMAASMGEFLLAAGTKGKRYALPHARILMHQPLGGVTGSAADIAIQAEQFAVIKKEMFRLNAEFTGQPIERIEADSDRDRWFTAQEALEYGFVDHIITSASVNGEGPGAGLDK
# ClpP1P2, sequence (A0R197 17-218): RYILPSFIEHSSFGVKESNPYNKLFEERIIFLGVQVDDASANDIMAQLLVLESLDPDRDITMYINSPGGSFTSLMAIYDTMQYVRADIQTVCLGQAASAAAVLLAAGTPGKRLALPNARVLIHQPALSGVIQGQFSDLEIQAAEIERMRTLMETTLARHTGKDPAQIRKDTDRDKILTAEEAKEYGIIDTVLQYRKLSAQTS
# HepG2 proteasome = HepG2 proteasome (Homo sapiens, UniProt P20618+P28074); experiment: Cell-based proteasome CT-like peptidase inhibition assay (Proteasome-Glo)
# Experimental: A cell-based CT-like peptidase assay was performed using the Proteasome-Glo cell-based assay reagent (Promega) according to the manufacturer's guidelines. Briefly, HepG2 cells (10^4 cells/well) were treated with the compounds indicated in the figures for 2 h, followed by incubation with the luminescent substrate for 10 min. Luminescence was detected with a Tecan M200 Pro plate reader.
Structure (SMILES),IC50 (Cathepsin G) [µM],IC50 (Chymase) [µM],M. smegmatis ΔprcAB MIC50 (M. smegmatis ΔprcAB),MIC50 (M. tuberculosis H37Rv) [µM],MIC90 (M. tuberculosis H37Rv) [µM],IC50 (ClpP1P2) [µM],IC50 (HepG2 proteasome) [nM]
"CC(C)C[C@H](NC(=O)[C@@H](NC(=O)N[C@@H](Cc1ccccc1)C(=O)O)[C@@H]1CCN=C(N)N1)C(=O)N[C@H](C=O)Cc1ccccc1 [Chymostatin, reference compound]",3.83,0.0915,–,–,–,–,–
"O=C(N[C@@H](Cc1ccccc1)C(=O)N[C@@H](Cc1ccccc1)B(O)O)c1cnccn1 [Compound 31, ((R)-2-phenyl-1-((S)-3-phenyl-2-(pyrazine-2-carboxamido)propanamido)ethyl)boronic acid]",–,–,16.5 µM and 16.5 ± 8.5 µM,6,20,7.5 ± 2.6,50 ± 10
"O=C(N[C@@H](Cc1ccccc1)C(=O)N[C@@H](CCc1ccccc1)B(O)O)c1cnccn1 [Compound 32, ((R)-3-phenyl-1-((S)-3-phenyl-2-(pyrazine-2-carboxamido)propanamido)propyl)boronic acid]",–,–,7 ± 1 µM,6,25,7.3 ± 1.9,70 ± 10
"O=C(N[C@@H](Cc1ccccc1)C(=O)N[C@@H](CCc1ccccc1)B(O)O)c1ccccc1 [Compound 51, ((R)-1-((S)-2-benzamido-3-phenylpropanamido)-3-phenylpropyl)boronic acid]",–,–,2.7 ± 0.5 µM,1 ± 0.2,6 ± 0.2,1.5 ± 0.5,167 ± 59
"O=C(N[C@@H](Cc1ccccc1)C(=O)N[C@@H](CCc1ccccc1)B(O)O)c1ccc(C(F)(F)F)cc1 [Compound 52, ((R)-3-phenyl-1-((S)-3-phenyl-2-(4-(trifluoromethyl)benzamido)propanamido)propyl)boronic acid]",–,–,11 ± 1 µM,–,–,12,100
"O=C(N[C@@H](Cc1ccccc1)C(=O)N[C@@H](CCc1ccccc1)B(O)O)c1ccccc1F [Compound 53, ((R)-1-((S)-2-(2-fluorobenzamido)-3-phenylpropanamido)-3-phenylpropyl)boronic acid]",–,–,7 ± 3 µM,–,–,4.5,200
"CC(C)(C(=O)N[C@@H](Cc1ccccc1)C(=O)N[C@@H](CCc1ccccc1)B(O)O)n1cccc1 [Compound 54, ((R)-1-((S)-2-(2-methyl-2-(1H-pyrrol-1-yl)propanamido)-3-phenylpropanamido)-3-phenylpropyl)boronic acid]",–,–,30 ± 0 µM,–,–,25,500
"O=C(N[C@@H](Cc1ccccc1)C(=O)N[C@@H](CCc1ccccc1)B(O)O)c1cnc(-c2ccccc2)nc1 [Compound 55, ((R)-3-phenyl-1-((S)-3-phenyl-2-(2-phenylpyrimidine-5-carboxamido)propanamido)propyl)boronic acid]",–,–,5.5 ± 0.5 µM,–,–,6,60
"CC(C)C[C@H](NC(=O)[C@H](C)NC(=O)c1cnccn1)B(O)O [Compound 56, ((R)-3-methyl-1-((S)-2-(pyrazine-2-carboxamido)propanamido)butyl)boronic acid]",–,–,76.7 ± 20.5 µM,–,–,100,225 ± 25
